The test system of assay [1] is human SKM-1 acute myeloid leukemia cells. The assay is described as follows: SKM-1 antiproliferation cell-based assay (ATPlite). As to conditions: Homo sapiens. An outline of the steps:
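Log-phase cells in RPMI 1640/15% FBS were seeded at 34722 cells/mL and exposed for 4 days to nine-concentration DMSO serial dilutions in triplicate. Viability was read as ATP luminescence (ATPlite 1step), and IC50 values came from variable-slope non-linear regression.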
(ATP-based viability assays read luminescence as a measure of living cells.)

Assay [2] addresses T1, human BRD4 bromodomain II (Homo sapiens, UniProt O60885).
T1 construct: human BRD4 bromodomain II [based on Genbank NM_058243, residues 349-460]; host or cells: E. coli
Description: Bromodomain binding assay (AlphaScreen), BRD4 BDII. The essentials: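 Read-out is AlphaScreen signal (ex 680 nm, em 520-620 nm) from streptavidin donor beads on a biotinylated acetylated histone H4 (aa 1-21) peptide and nickel acceptor beads on the His6-tagged bromodomain. IC50 values come from curve fits of percentage peptide binding against compound concentration.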
A general note: Bead proximity is the source of the signal in Alpha formats.

Where [3] appears, read: SKM-1, 96 h, SKM-1 antiproliferation assay, 4 days, Table C2.
The mark [4] stands for this setting: AlphaScreen assay, Table C2, read-out: BRD4 BDII IC50.
The mark [5] stands for this setting: SKM-1, SKM-1 antiproliferation assay.
[6] abbreviates: BRD4 BDII AlphaScreen assay, read-out: BRD4 BD2 IC50.

Results on 24 compounds are retold here after US20250179059A1 (The Regents of the University of California, priority 2021, published 2025).

Usually GI50 stands for the concentration that inhibits growth by half. A lower GI50 goes with greater sensitivity of the cells. By IC50 is commonly meant the concentration that gives 50% inhibition.

Like-named read-outs stand apart in the source and are kept apart here.

The compound `Cn1ccn(-c2ccc(-c3cc(F)cc(-c4cc(N5CC[C@@H](N)C5)c5cn[nH]c5c4)c3O)cc2Cl)c1=O` [Example 593, (R)-1-(3′-(4-(3-aminopyrrolidin-1-yl)-1H-indazol-6-yl)-3-chloro-5′-fluoro-2′-hydroxy-[1,1′-biphenyl]-4-yl)-3-methyl-1H-imidazol-2(3H)-one] registered a GI50 in assay [1] (setting [3]) of 0.3 to 30 nM. Also, in assay [2] (setting [4]), the IC50 fell in the range of 0.01 to 1 nM.
On the same counts, the results for `CC(=O)Nc1ccc(-c2cccc(-c3cc(C#N)nc(N4CCNCC4)c3)c2O)cc1F` [Example 313, N-(3′-(2-cyano-6-(piperazin-1-yl)pyridin-4-yl)-3-fluoro-2′-hydroxy-[1,1′-biphenyl]-4-yl)acetamide] are no less than 3000 nM and greater than 100 nM.
In turn, `CCc1cc(-c2cc(F)cc(-c3cccc(N4CCN(C(C)(C)C)CC4)c3)c2O)cc(Cl)c1-n1ccn(C)c1=O` [Example 929, 1-(3″-(4-(tert-butyl)piperazin-1-yl)-3-chloro-5-ethyl-5′-fluoro-2′-hydroxy-[1,1′:3′,1″-terphenyl]-4-yl)-3-methyl-1H-imidazol-2(3H)-one] displayed a GI50 in assay [1] (setting [5]) of 300 to 3000 nM. In assay [2] (setting [6]), the IC50 is greater than 100 nM.
Turning to `CC(=O)Nc1ccc(-c2cccc(-c3cncc(N4CCNCC4)c3)c2O)cc1F` [Example 189, N-(3-fluoro-2′-hydroxy-3′-(5-(piperazin-1-yl)pyridin-3-yl)-[1,1′-biphenyl]-4-yl)acetamide], the 50% growth inhibitory concentration (GI50) in assay [1] (setting [3]) is 30 to 300 nM. The IC50 in assay [2] (setting [4]) is 1 to 10 nM.
With `Cn1ccn(-c2ccc(-c3cccc(-c4cccc(N5CCN(C(C)(C)C)CC5)c4)c3O)cc2Cl)c1=O` [Example 1021, 1-(3″-(4-(tert-butyl)piperazin-1-yl)-3-chloro-2′-hydroxy-[1,1′:3′,1″-terphenyl]-4-yl)-3-methyl-1H-imidazol-2(3H)-one], the GI50 in assay [1] (setting [5]) lay within 0.3 to 30 nM. Also, in assay [2] (setting [6]), the IC50 lay within 0.01 to 1 nM.
As for `COCCCn1cc(-c2cc(F)cc(-c3ccc(-n4ccn(C)c4=O)c(Cl)c3)c2O)cc(N2CCN[C@H](C)C2)c1=O` [Example 660, (R)-5-(3′-chloro-5-fluoro-2-hydroxy-4′-(3-methyl-2-oxo-2,3-dihydro-1H-imidazol-1-yl)-[1,1′-biphenyl]-3-yl)-1-(3-methoxypropyl)-3-(3-methylpiperazin-1-yl)pyridin-2(1H)-one], in assay [1] (setting [3]), the GI50 is 30 to 300 nM. Besides, in assay [2] (setting [4]), the IC50 is 0.01 to 1 nM.
`CN1CCN(c2ccc(-c3cc(F)cc(-c4ccc(OC5CCNCC5)nc4)c3O)cc2Cl)C1=O` [compound 446, 1-(3-chloro-5′-fluoro-2′-hydroxy-3′-(6-(piperidin-4-yloxy)pyridin-3-yl)-[1,1′-biphenyl]-4-yl)-3-methylimidazolidin-2-one] returned a GI50 in assay [1] (setting [3]) of 300 to 3000 nM. In addition, the IC50 in assay [2] (setting [4]) was 10 to 100 nM.
For `C[C@@H]1CN(c2cc(-c3cc(F)cc(-c4ccc(-n5ccn(C)c5=O)c(Cl)c4)c3O)cnn2)CCN1` [Example 650, (R)-1-(3-chloro-5′-fluoro-2′-hydroxy-3′-(6-(3-methylpiperazin-1-yl)pyridazin-4-yl)-[1,1′-biphenyl]-4-yl)-3-methyl-1H-imidazol-2(3H)-one], in assay [1] (setting [3]), the GI50 lay within 0.3 to 30 nM. The IC50 in assay [2] (setting [4]) lay within 0.01 to 1 nM.
On the same counts, the results for `Cn1ccn(-c2ccc(-c3cc(F)cc(-c4cc(N5CC[C@H](N)C5)c5nccnc5c4)c3O)cc2Cl)c1=O` [Example 548, (S)-1-(3′-(8-(3-aminopyrrolidin-1-yl)quinoxalin-6-yl)-3-chloro-5′-fluoro-2′-hydroxy-[1,1′-biphenyl]-4-yl)-3-methyl-1H-imidazol-2(3H)-one] are 0.3 to 30 nM and 1 to 10 nM.
On the same counts, the results for `CC#Cc1ncc(-c2cc(F)cc(-c3ccc(N4CCN(C)C4=O)c(Cl)c3)c2O)cc1N1CCNCC1` [Example 403, 1-(3-chloro-5′-fluoro-2′-hydroxy-3′-(5-(piperazin-1-yl)-6-(prop-1-yn-1-yl)pyridin-3-yl)-[1,1′-biphenyl]-4-yl)-3-methylimidazolidin-2-one] are 0.3 to 30 nM and 1 to 10 nM.
In turn, `Cc1ncc(-c2nccc(-c3ccc(-n4ccn(C)c4=O)c(Cl)c3)c2O)cc1N1CCN(C(C)(C)C)CC1` [Example 993, 1-(4-(5′-(4-(tert-Butyl)piperazin-1-yl)-3-hydroxy-6′-methyl-[2,3′-bipyridin]-4-yl)-2-chlorophenyl)-3-methyl-1H-imidazol-2(3H)-one] had a GI50 in assay [1] (setting [5]) of 0.3 to 30 nM. Besides, the IC50 in assay [2] (setting [6]) fell in the range of 10 to 100 nM.
`CSc1cc(-c2cc(F)cc(-c3cnc(SC)c(N4CCN(C(C)C)CC4)c3)c2O)ccc1-n1ccn(C)c1=O` [Example 818, 1-(5′-fluoro-2′-hydroxy-3′-(5-(4-isopropylpiperazin-1-yl)-6-(methylthio)pyridin-3-yl)-3-(methylthio)-[1,1′-biphenyl]-4-yl)-3-methyl-1H-imidazol-2(3H)-one] had a GI50 in assay [1] (setting [3]) of 30 to 300 nM. In assay [2] (setting [4]), the IC50 was greater than 100 nM.
As for `CN1CCN(c2cc(-c3cc(F)cc(-c4ccc(-n5ccn(C)c5=O)c(Cl)c4)c3O)cc3c2cnn3C)CC1` [Example 604, 1-(3-chloro-5′-fluoro-2′-hydroxy-3′-(1-methyl-4-(4-methylpiperazin-1-yl)-1H-indazol-6-yl)-[1,1′-biphenyl]-4-yl)-3-methyl-1H-imidazol-2(3H)-one], the concentration for 50% growth inhibition (GI50) in assay [1] (setting [3]) lay within 0.3 to 30 nM. Besides, the IC50 in assay [2] (setting [4]) was 0.01 to 1 nM.
`C[C@@H]1CN(c2cc(-c3cc(F)cc(-c4ccc(-n5ccn(C)c5=O)c(Cl)c4)c3O)cn3ncnc23)CCN1` [Example 602, (R)-1-(3-chloro-5′-fluoro-2′-hydroxy-3′-(8-(3-methylpiperazin-1-yl)-[1,2,4]triazolo[1,5-a]pyridin-6-yl)-[1,1′-biphenyl]-4-yl)-3-methyl-1H-imidazol-2(3H)-one] came in with a GI50 in assay [1] (setting [3]) of 0.3 to 30 nM. For the same compound, the concentration for half-maximal inhibition (IC50) in assay [2] (setting [4]) lay within 0.01 to 1 nM.
As to `Cn1ccn(-c2ccc(-c3cc(F)cc(-c4cccc(N5CCN(C6CCOC6)CC5)c4)c3O)cc2Cl)c1=O` (stereo not drawn) [Example 867], in assay [1] (setting [5]), the GI50 was in the range of 30 to 300 nM. For the same compound, the IC50 in assay [2] (setting [6]) lay in the range of 1 to 10 nM.
For `CC(=O)Nc1ccc(-c2cccc(-c3ccnc(N4CC[C@H](O)C4)c3)c2O)cc1F` [Example 239, (S)-N-(3-fluoro-2′-hydroxy-3′-(2-(3-hydroxypyrrolidin-1-yl)pyridin-4-yl)-[1,1′-biphenyl]-4-yl)acetamide], the GI50 in assay [1] (setting [3]) was 300 to 3000 nM. In assay [2] (setting [4]), the IC50 lay within 1 to 10 nM.
On the same counts, the results for `C[C@@H]1CN(c2cc(-c3cc(F)cc(-c4ccc(-n5ccn(C)c5=O)c(Cl)c4)c3O)ccc2F)CCN1` [Example 677, (R)-1-(3-chloro-4″,5′-difluoro-2′-hydroxy-3″-(3-methylpiperazin-1-yl)-[1,1′:3′,1″-terphenyl]-4-yl)-3-methyl-1H-imidazol-2(3H)-one] are 0.3 to 30 nM and 0.01 to 1 nM.
On the same counts, the results for `CN1CCN(c2ccc(-c3cc(F)cc(-c4cc(N5CCNCC5)c(=O)n(C)c4)c3O)cc2Cl)C1=O` [Example 372, 5-(3′-chloro-5-fluoro-2-hydroxy-4′-(3-methyl-2-oxoimidazolidin-1-yl)-[1,1′-biphenyl]-3-yl)-1-methyl-3-(piperazin-1-yl)pyridin-2(1H)-one] are 30 to 300 nM and 1 to 10 nM.
As to `C[C@@H]1CN(c2cc(-c3cc(F)cc(-c4ccc(-n5ccn(C)c5=O)c(Cl)c4)c3O)cc3c2ccn3C)CCN1` [Example 579, (R)-1-(3-chloro-5′-fluoro-2′-hydroxy-3′-(1-methyl-4-(3-methylpiperazin-1-yl)-1H-indol-6-yl)-[1,1′-biphenyl]-4-yl)-3-methyl-1H-imdazol-2(3H)-one], the GI50 in assay [1] (setting [3]) was in the range of 0.3 to 30 nM. Also, the IC50 in assay [2] (setting [4]) was 0.01 to 1 nM.
As for `CNc1ncc(-c2cc(F)cc(-c3ccc(-n4ccn(C)c4=O)c(Cl)c3)c2O)cc1N1CCC2(CCCN2C(C)C)C1` (stereo not drawn) [Example 970, 1-(3-chloro-5′-fluoro-2′-hydroxy-3′-(5-(1-isopropyl-1,7-diazaspiro[4.4]nonan-7-yl)-6-(methylamino)pyridin-3-yl)-[1,1′-biphenyl]-4-yl)-3-methyl-1H-imidazol-2(3H)-one], the GI50 in assay [1] (setting [5]) is 0.3 to 30 nM. Besides, in assay [2] (setting [6]), the IC50 fell in the range of 1 to 10 nM.
As for `CC(=O)Nc1ccc(-c2cccc(-c3cc(C#N)cc(N4CCNCC4)c3)c2O)cc1F` [Example 234, N-(3″-cyano-3-fluoro-2′-hydroxy-5″-(piperazin-1-yl)-[1,1′:3′,1″-terphenyl]-4-yl)acetamide], in assay [1] (setting [3]), the GI50 was 30 to 300 nM. The IC50 in assay [2] (setting [4]) lay in the range of 1 to 10 nM.
On the same counts, the results for `Cn1ccn(-c2ccc(-c3cc(F)cc(-c4ccnc(N5CCCC6(CCCN6)C5)c4)c3O)cc2Cl)c1=O` (stereo not drawn) [Example 694, 1-(3′-(2-(1,7-diazaspiro[4.5]decan-7-yl)pyridin-4-yl)-3-chloro-5′-fluoro-2′-hydroxy-[1,1′-biphenyl]-4-yl)-3-methyl-1H-imidazol-2(3H)-one] are 0.3 to 30 nM and 1 to 10 nM.
In assay [1] (setting [3]), `Cn1ccn(-c2ccc(-c3cc(F)cc(-c4ccnc(N5CCOCC5)c4)c3O)cc2Cl)c1=O` [Example 615, 1-(3-chloro-5′-fluoro-2′-hydroxy-3′-(2-morpholinopyridin-4-yl)-[1,1′-biphenyl]-4-yl)-3-methyl-1H-imidazol-2(3H)-one] gave a 50% growth inhibitory concentration (GI50) of 30 to 300 nM. Moreover, in assay [2] (setting [4]), the IC50 was 1 to 10 nM.
`Cn1ccn(-c2ccc(-c3cc(F)cc(-c4cncc(N5CCNCC5)c4)c3O)cc2Cl)c1=O` [Example 472, 1-(3-chloro-5′-fluoro-2′-hydroxy-3′-(5-(piperazin-1-yl)pyridin-3-yl)-[1,1′-biphenyl]-4-yl)-^3-methyl-1H-imidazol-2(3H)-one] registered a GI50 in assay [1] (setting [3]) of 0.3 to 30 nM. Further, the IC50 in assay [2] (setting [4]) was in the range of 1 to 10 nM.
